Experimental data taken from EP0111112A1, “Granular pesticidal compositions coated with hydrophobic solids with attendant reduced dermal toxicity” (priority 1982, dated 1984).

Tests used:
[1] = Dermal toxicity of pesticidal formulations in male albino rabbits; details: rabbit, in vivo, topical or ocular, 24 hours contact, observed 14 days
Description: Five male albino rabbits weighing approximately 2.2 to 3.5 kilograms are selected for each dosage level. The hair is shaved from the entire trunk.
The following materials are used in dermal toxicity tests: • (a.) Saran tubing or "vinylite" film VU 1900, 30.5 cm (12") wide, 0.04 millimeter in thickness, and long enough to fit around the rabbit; (b.) Felt cloth bandages measuring approximately 22.9 x 45.7 cm (9" x 18"); (c.) pieces of 3.8 cm (1.5") adhesive tape approximately 35.6 cm (14") long.
Granular material to be evaluated is placed in the center of the plastic film and is moistened with water. The rabbits' underside is then moistened with water, and the animals are placed, belly down, on. the material. The plastic is then brought up and around the animal and secured at each end with strips of adhesive tape. The felt cloth is then placed under the belly and brought up and around the animal and secured to the body with the remaining two strips of adhesive tape. The "cuff" is removed from the test animals 24 hours after dosing, and any remaining material is brushed away. If the test material cannot be removed, the animal is fitted with a fiber collar which prevents the animal from licking the treatment area. […]
The dermal LD50 values (mg/kg/ body weight) are. calculated for experimental data for the compositions evaluated. […]

[2] = Dermal toxicity of pesticidal formulations in male rats; details: rat, in vivo, topical or ocular, male Wistar rats, 24 hours contact, observed 14 days
Experimental: Five male Wistar rats weighing approximately 209 to 277 g are selected for each dosage level. The hair is shaved from the ventral surface of the abdomen.
Granular material for evaluation is mixed with an equal weight of water on an aluminum foil backed with a plastic adhesive strapping. This preparation is then applied to the shaven ventral surface of the animal and fastened in place with adhesive strapping. After a contact time of 24 hours, the strapping is removed and the skin is washed with soap and water. The animals are then observed for 14 days for skin irritation or mortality. After this observation period, the animals are sacrificed and weighed.
Dermal LD50 values (mg/kg body weight) are calculated from experimental data for the compositions evaluated. The LD50 values obtained are averaged. […] Compositions A and B of Table III are as defined in Table I.

## CCOP(=S)(OCC)SCSC(C)(C)C [O,O-diethyl S-{[(1,1-dimethylethyl)-thio]methyl}phosphorodithioate]
[1]
  LD50 at 336 h: 1 to 2 mg/kg
[2]
  LD50 at 336 h: 1 to 2 mg/kg
